Test results from US11471391B2, “Cosmetic composition for inhibiting sebum hypersecretion” (NeoPharm Co., Ltd., priority 2019, dated 2022).

Key:
Type in all cases: cell-based
[1] = system: human sebocytes; test: Nile red staining of human sebocytes, microscopic image; details: Nile red 1 ug/ml for 30 minutes, FIG. 3
Experimental: (§1) 1×10^5 (1 mL/well) of human sebocytes were adhered on a 12-well plate containing a Dulbecco's modified eagle medium (DMEM)/F12 (1:1) containing 10% fetal bovine serum (FBS).

[2] = system: PPAR-γ; test: Effect of inhibiting expression of PPAR-γ by Western blot in IGF-1-treated human sebocytes; details: human sebocytes pretreated with IGF-1 (50 ng/ml), sample 20 μM, 24 hours, FIG. 1
Experimental: 1. Effect of Inhibiting Expression of PPAR-γ by Western Blot
In the present invention, 1.5×10^5 (1 mL/well) of human sebocytes were adhered on a 12-well plate containing a Dulbecco's modified eagle medium (DMEM)/F12 (1:1) containing 10% fetal bovine serum (FBS). After culturing for 24 hours, cells were collected after 24 hours from each sample of a control group (1 μM) in which the medium was replaced with a serum-free medium and previously treated with IGF-1 (50 ng/ml) and an experimental group in which the control group was treated with Compound 1 of Example 1 (20 μM). In addition, in the present invention, the control means a sample which was not treated with IGF-1, and the comparative group means a sample in which the control group was treated with retinoic acid (20 μM). Thereafter, expression of PPAR-γ protein which is a representative lipid synthetic transcription factor of sebocytes was analyzed by the Western blot, for each of these samples.

[3] = system: human sebocytes; test: Effect of inhibiting sebum secretion, oil red O staining of IGF-1-treated human sebocytes
Experimental: 2. Effect of Inhibiting Sebum Secretion
as §1
In FIG. 2, each sample of a control group (1 μM) which was previously treated with IGF-1 (50 ng/ml) after culturing for 24 hours and an experimental group in which the control group was treated with Compound 1 of Example 1 (20 μM) was stained after 24 hours with a 0.5% oil red O solution for 1 hour and treated with 100% isopropanol, and an absorbance was measured by a 500 nm ELISA reader.

CCCCCCCC(=O)C(CCCCCC)C(=O)N[C@@H](C)C(=O)OC (stereo partly shown) [Compound 1, methyl (2-hexyl-3-oxodecanoyl)alaninate]
differentiation of fat cells (Nile red staining, microscopic image) [1]: differentiation of fat cells is more effectively derived | inhibition of PPAR-γ activation/expression (Western blot) [2]: effect of inhibiting PPAR-γ activity is remarkable | sebum production amount (fat content in sebocytes, oil red O, absorbance 500 nm) ([3]; human sebocytes pretreated with IGF-1 (50 ng/ml), 20 μM, 24 hours, FIG. 2): remarkably decreased | dependence of the sebum production decrease on treatment concentration ([3]; human sebocytes pretreated with IGF-1, oil red O, each concentration): significantly increased depending on the treatment concentration
